How the values were obtained:
Type in all cases: binding
LHCGR = target: T1, LHCGR (Homo sapiens, UniProt P22888); assay: NanoBRET screen HiBiT-LHCGR in HEK293; conditions: LHCGR
T1 construct: purchased Promega (in-house HiBiT-GPCR construct library, NanoBRET)
Experimental: (§1) Each tracer candidate was screened across the entire library of HiBiT-GPCR constructs using NanoBRET as the detection modality. As depicted in Figure 4A, the specificity of interactions was evaluated through decrease in BRET due to competitive displacement of a bound tracer by excess parental compound. Each tracer was analyzed for binding to each HiBiT-GPCR fusion in the absence and in the presence of competing parental compound. Briefly, HEK293 cells were transfected with HiBiT-GPCR constructs diluted into promoterless DNA to reduce expression and maximize translocation to the cell surface. Each tracer candidate was then screened at concentrations of 1 μM and 0.1 μM across cells expressing these fusions. Cells were treated for 1.5 h with tracer either alone or in the presence of 20 μM competing parental compound (i.e., control). BRET was measured upon addition of purified LgBiT and subsequent complementation with HiBiT genetically fused to a GPCR. The specificity of interactions was assessed through a decrease in BRET signal due to competitive displacement of the bound tracer. To further gauge the robustness of these interactions, the fold response over the control (i.e., BRETtracer/BRETcontrol) was calculated. We chose a 1.5-fold response, which translates to ≥7-fold signal over noise as the minimal threshold required to score an interaction as positive. […]. Below we highlight the screening results obtained for our exemplary fluorescent tracers based on Clozapine, Amitriptyline and AZD1283.
(§2) HiBiT-GPCR DNA constructs were diluted in 10 mM Tris pH 8 to a final concentration of 0.01 μg/μL, arrayed in 96-well plates and stored at −20 °C. For transfection, HEK293 cells were suspended in Opti-MEM (without phenol red) supplemented with 2% fetal bovine serum (Seradigm) and 100 units/mL penicillin–streptomycin (Gibco) at a final concentration of 220,000 cells/mL and dispensed into white 96-well plates at 90 μL/well. Subsequent transfections and screens were carried using an Agilent Bravo Automated Liquid Handling Platform. First, the 96-well HiBiT DNA arrays were diluted 25-fold in Opti-MEM (without serum or phenol red) to a final concentration of 0.0004 μg/μL and 20 μL of the diluted DNAs were transferred into new 96-well plates. Next, promoterless carrier DNA (1 μg/μL) was diluted 25-fold (0.04 μg/μL) and then dispensed into the diluted arrays at 20 μL/well. Following brief mixing, Viafect transfection reagent (Promega) diluted 16-fold into Opti-MEM was dispensed into the plates at 40 μL/well. After mixing by pipetting, plates were incubated for 10 min on the pipetting station deck. The DNA-transfection reagent complexes were then added to plates containing cells. To facilitate the screen, 10 μL of DNA-transfection reagent complexes were added in duplicates to the top 4 and bottom 4 rows, resulting in two identical 48-well arrays per plate. Plates with transfected cells were incubated for 18–20 h at 37 °C/5% CO2. A screen of each tracer across the entire library using two different concentrations requires duplicate plates of transfected cells. Depending on the number of tracers being screened, transfections can be scaled up using the same ratios. The next day, for each tracer, four 20× screening solutions in tracer dilution buffer (Promega) were prepared: two duplicates at final concentration of 20 μM and two duplicates at a final concentration of 2 μM. A competing unmodified compound was added to one of each duplicate at a final concentration of 400 μM. The four resulting solutions were diluted 4-fold in Opti-MEM without serum or phenol red to generate 5× solutions (5 µM and 0.5 µM tracer +/− 100 μM competing compound). To screen the library, a BioTek MultiFlo FX liquid dispenser was used to dispense 22.5 µL of tracer solution to the top 4 rows and 22.5 µL tracer + competing compound solution to the 4 bottom rows. Plates were briefly mixed on an orbital shaker and incubated for 1.5 h at room temperature. […]

ADORA1 = target: T2, ADORA1 (Homo sapiens, UniProt P30542); assay: NanoBRET screen HiBiT-ADORA1 in HEK293
T2 construct: purchased Promega (in-house HiBiT-GPCR construct library, NanoBRET)
T2 sequence (P30542 1-326): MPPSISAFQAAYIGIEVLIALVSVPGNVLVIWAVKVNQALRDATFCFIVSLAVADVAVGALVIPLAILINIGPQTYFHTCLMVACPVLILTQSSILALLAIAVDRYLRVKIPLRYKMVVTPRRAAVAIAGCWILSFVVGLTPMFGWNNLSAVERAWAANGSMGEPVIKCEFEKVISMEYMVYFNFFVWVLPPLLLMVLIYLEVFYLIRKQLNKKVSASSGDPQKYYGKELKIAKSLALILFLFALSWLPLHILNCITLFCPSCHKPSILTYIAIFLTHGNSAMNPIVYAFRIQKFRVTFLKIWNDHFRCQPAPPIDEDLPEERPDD
Experimental: as §1, §2

PDGFRB = target: T3, PDGFRB (Homo sapiens, UniProt P09619); assay: NanoBRET screen HiBiT-PDGFRB in HEK293
T3 construct: purchased Promega (in-house HiBiT-GPCR construct library, NanoBRET)
T3 sequence (P09619 33-1106): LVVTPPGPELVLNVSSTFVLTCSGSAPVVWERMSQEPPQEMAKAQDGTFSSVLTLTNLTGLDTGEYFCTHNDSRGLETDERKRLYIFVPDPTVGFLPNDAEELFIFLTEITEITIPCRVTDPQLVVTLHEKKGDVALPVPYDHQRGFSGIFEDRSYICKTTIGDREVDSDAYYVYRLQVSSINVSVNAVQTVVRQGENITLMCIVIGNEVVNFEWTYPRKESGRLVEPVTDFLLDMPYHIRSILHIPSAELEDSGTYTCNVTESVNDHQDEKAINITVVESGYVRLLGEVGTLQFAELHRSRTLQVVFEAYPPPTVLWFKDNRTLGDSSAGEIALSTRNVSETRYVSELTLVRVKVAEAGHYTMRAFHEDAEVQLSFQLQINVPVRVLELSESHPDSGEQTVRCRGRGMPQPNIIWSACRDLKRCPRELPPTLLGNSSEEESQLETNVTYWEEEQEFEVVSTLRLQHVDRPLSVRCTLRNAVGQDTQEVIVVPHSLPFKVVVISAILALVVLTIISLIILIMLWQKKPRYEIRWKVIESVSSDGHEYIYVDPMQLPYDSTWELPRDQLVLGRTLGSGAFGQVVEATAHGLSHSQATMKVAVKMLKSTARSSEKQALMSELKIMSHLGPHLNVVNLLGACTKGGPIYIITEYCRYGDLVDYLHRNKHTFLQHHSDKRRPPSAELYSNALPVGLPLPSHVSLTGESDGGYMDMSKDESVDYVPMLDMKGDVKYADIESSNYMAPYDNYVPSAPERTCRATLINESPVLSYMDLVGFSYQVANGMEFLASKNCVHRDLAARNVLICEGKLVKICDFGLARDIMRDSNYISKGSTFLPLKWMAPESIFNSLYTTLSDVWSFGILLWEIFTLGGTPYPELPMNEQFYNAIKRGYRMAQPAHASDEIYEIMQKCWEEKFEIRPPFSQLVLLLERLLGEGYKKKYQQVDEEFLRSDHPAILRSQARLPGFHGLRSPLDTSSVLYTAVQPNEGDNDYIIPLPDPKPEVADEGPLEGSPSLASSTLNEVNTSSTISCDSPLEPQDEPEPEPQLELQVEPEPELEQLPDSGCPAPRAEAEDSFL
Experimental: as §1, §2

P2RY14 = target: T4, P2RY14 (Homo sapiens, UniProt Q15391); assay: NanoBRET screen HiBiT-P2RY14 in HEK293
T4 construct: purchased Promega (in-house HiBiT-GPCR construct library, NanoBRET)
T4 sequence (Q15391 1-338): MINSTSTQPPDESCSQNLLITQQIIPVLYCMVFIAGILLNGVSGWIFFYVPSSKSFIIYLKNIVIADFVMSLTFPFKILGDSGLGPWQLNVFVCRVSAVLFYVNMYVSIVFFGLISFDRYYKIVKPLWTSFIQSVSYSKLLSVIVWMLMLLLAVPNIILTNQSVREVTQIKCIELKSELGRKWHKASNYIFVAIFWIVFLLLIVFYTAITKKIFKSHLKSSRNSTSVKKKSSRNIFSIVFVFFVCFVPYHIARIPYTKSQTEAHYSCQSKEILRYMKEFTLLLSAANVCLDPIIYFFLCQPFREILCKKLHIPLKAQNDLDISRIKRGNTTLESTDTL
Experimental: as §1, §2

XCR1 = target: T5, XCR1 (Homo sapiens, UniProt P46094); assay: NanoBRET screen HiBiT-XCR1 in HEK293
T5 construct: purchased Promega (in-house HiBiT-GPCR construct library, NanoBRET)
T5 sequence (P46094 1-333): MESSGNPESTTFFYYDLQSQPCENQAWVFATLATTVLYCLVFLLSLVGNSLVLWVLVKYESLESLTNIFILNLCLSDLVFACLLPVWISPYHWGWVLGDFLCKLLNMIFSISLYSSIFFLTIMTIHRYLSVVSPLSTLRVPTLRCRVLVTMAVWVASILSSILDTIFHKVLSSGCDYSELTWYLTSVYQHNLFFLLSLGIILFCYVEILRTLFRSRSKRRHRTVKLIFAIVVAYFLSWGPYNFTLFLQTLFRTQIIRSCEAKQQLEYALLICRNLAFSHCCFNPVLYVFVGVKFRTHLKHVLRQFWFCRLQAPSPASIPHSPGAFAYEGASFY
Experimental: as §1, §2

[1] = tracer at 1μM, listed as amitriptyline-b-2-NB590
[2] = tracer at 0.1μM, listed as amitriptyline-b-2-NB590

T1 sequence (P22888 27-699): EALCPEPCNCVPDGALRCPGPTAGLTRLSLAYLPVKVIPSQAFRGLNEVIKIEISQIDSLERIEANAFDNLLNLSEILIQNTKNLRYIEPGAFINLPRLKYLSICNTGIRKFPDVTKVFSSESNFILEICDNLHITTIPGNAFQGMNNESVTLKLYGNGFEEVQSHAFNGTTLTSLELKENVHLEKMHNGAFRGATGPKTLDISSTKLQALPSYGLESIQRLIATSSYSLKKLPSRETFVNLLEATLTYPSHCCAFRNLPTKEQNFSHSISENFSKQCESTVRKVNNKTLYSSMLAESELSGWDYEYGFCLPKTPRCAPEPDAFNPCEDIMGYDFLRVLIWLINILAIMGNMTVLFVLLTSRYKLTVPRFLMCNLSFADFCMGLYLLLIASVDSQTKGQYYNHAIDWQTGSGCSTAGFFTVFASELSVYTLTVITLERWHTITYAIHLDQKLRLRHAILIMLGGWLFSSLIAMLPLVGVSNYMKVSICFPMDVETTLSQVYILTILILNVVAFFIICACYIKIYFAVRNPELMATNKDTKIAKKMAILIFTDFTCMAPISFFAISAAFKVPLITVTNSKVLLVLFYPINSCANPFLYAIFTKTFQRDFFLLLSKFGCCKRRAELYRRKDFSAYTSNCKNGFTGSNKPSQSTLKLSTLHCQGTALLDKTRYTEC

Structure (SMILES) | NanoBRET Fold Response (LHCGR; tracer 0.1μM) | NanoBRET Fold Response (LHCGR; tracer 1μM) | NanoBRET Fold Response (ADORA1; ADORA1, tracer 0.1μM) | NanoBRET Fold Response (ADORA1; ADORA1, tracer 1μM) | NanoBRET Fold Response (PDGFRB; PDGFRB, tracer 0.1μM) | NanoBRET Fold Response (PDGFRB; PDGFRB, tracer 1μM) | NanoBRET Fold Response (P2RY14; P2RY14, tracer 0.1μM) | NanoBRET Fold Response (P2RY14; P2RY14, tracer 1μM) | NanoBRET Fold Response (XCR1; XCR1, tracer 0.1μM) | NanoBRET Fold Response (XCR1; XCR1, tracer 1μM) | further results
CN1CCN(C2=Nc3cc(Cl)ccc3Nc3ccc(CNC(=O)CCOCCOCCOCCOCCNC(=O)CCc4ccc5n4[B-](F)(F)[N+]4=C(c6ccc[nH]6)C=CC4=C5)cc32)CC1 [Clozapine-b-2-NB590] |  |  |  |  |  |  |  |  |  |  | NanoBRET Fold Response (LHCGR; 0.1μM tracer): 1.06; NanoBRET Fold Response (LHCGR; 1μM tracer): 0.99; NanoBRET Fold Response (ADORA1; ADORA1, 0.1μM tracer): 0.99; NanoBRET Fold Response (ADORA1; ADORA1, 1μM tracer): 0.97; NanoBRET Fold Response (PDGFRB; PDGFRB, 0.1μM tracer): 1.02; NanoBRET Fold Response (PDGFRB; PDGFRB, 1μM tracer): 0.99; NanoBRET Fold Response (P2RY14; P2RY14, 0.1μM tracer): 1.01; NanoBRET Fold Response (P2RY14; P2RY14, 1μM tracer): 0.99; NanoBRET Fold Response (XCR1; XCR1, 0.1μM tracer): 0.94; NanoBRET Fold Response (XCR1; XCR1, 1μM tracer): 1.18
CC(C)N(CC[C@H](c1ccccc1)c1cc(CCNC(=O)CCOCCOCCOCCOCCNC(=O)CCc2ccc3n2[B-](F)(F)[N+]2=C(c4ccc[nH]4)C=CC2=C3)ccc1O)C(C)C [Tolterodine-2-NB590] | 1.08 | 1.02 | 0.95 | 0.99 | 1.22 | 0.94 | 0.93 | 1.08 | 0.81 | 1.17 | 
Cc1cc2c(s1)Nc1ccccc1N=C2N1CCN(CCCNC(=O)CCOCCOCCOCCOCCNC(=O)CCc2ccc3n2[B-](F)(F)[N+]2=C(c4ccc[nH]4)C=CC2=C3)CC1 [Olanzapine-a-2-NB590] | 1.00 | 1.01 | 1.09 | 1.22 | 0.98 | 1.05 | 1.05 | 1.00 | 0.88 | 1.27 | 
N#CN=C(NCCCOc1cccc(CN2CCCCC2)c1)NCCNC(=O)CCOCCOCCOCCOCCNC(=O)CCc1ccc2n1[B-](F)(F)[N+]1=C(c3ccc[nH]3)C=CC1=C2 [Aminopotentidine-2-NB590] | 1.03 | 1.00 | 1.04 | 1.01 | 0.90 | 1.01 | 0.98 | 0.91 | 1.11 | 0.87 | 
Cc1nc2n(c(=O)c1CCN1CCC(c3noc4cc(F)ccc34)CC1)CCCC2OC(=O)NCCOCCOCCOCCOCCNC(=O)CCc1ccc2n1[B-](F)(F)[N+]1=C(c3ccc[nH]3)C=CC1=C2 (centres unmarked) [Risperidone-2-NB590] | 0.99 | 1.04 | 1.04 | 1.05 | 1.09 | 0.90 | 1.02 | 0.93 | 0.97 | 0.88 | 
CN(C)CCC=C1c2ccccc2CCc2ccc(C(=O)NCCNC(=O)CCOCCOCCOCCOCCNC(=O)CCc3ccc4n3[B-](F)(F)[N+]3=C(c5ccc[nH]5)C=CC3=C4)cc21 [Amitriptyline-b-2-NB590] | 1.05 | 1.00 |  |  |  |  |  |  |  |  | NanoBRET Fold Response (ADORA1; [1]): 1.01; NanoBRET Fold Response (PDGFRB; tracer at 0.1μM): 0.97; NanoBRET Fold Response (PDGFRB; [1]): 0.99; NanoBRET Fold Response (P2RY14; [2]): 1.12; NanoBRET Fold Response (P2RY14; [1]): 0.77; NanoBRET Fold Response (XCR1; [2]): 0.92; NanoBRET Fold Response (XCR1; [1]): 0.83

From article PMC8151276, “An Integrated Approach toward NanoBRET Tracers for Analysis of GPCR Ligand Engagement” (Molecules, 2021)
